Results taken from ChEMBL document CHEMBL1201862, “PubChem BioAssay data set” (2004).
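Each compound was tested at five concentrations against cells in 96-well plates for 48 hours. Abbreviation: GI50, concentration required for 50% inhibition of growth.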 The source made the active and inactive calls. Rule as the data show it: active = GI50 up to about 1.1 µM and inactive = higher.

Legend:
Assay in all cases: inhibition of tumour cell growth, NCI panel, 48 h
[1] = system: 786-0
[2] = system: A498
[3] = system: A549
[4] = system: ACHN
[5] = system: BT-549
[6] = system: CAKI-1
[7] = system: CCRF-CEM
[8] = system: COLO 205
[9] = system: DU-145
[10] = system: EKVX
[11] = system: HCT-116
[12] = system: HCT-15
[13] = system: HL-60
[14] = system: HOP-62
[15] = system: HOP-92
[16] = system: HT-29
[17] = system: Hs-578T
[18] = system: IGROV-1
[19] = system: K562
[20] = system: KM12
[21] = system: LOX IMVI
[22] = system: M14
[23] = system: MCF7
[24] = system: MDA-MB-231
[25] = system: MDA-MB-435
[26] = system: MDA-N
[27] = system: MOLT-4
[28] = system: Malme-3M
[29] = system: NCI-H226
[30] = system: NCI-H23
[31] = system: NCI-H460
[32] = system: NCI-H522
[33] = system: NCI/ADR-RES
[34] = system: OVCAR-3
[35] = system: OVCAR-4
[36] = system: OVCAR-5
[37] = system: OVCAR-8
[38] = system: PC-3
[39] = system: RPMI-8226
[40] = system: RXF 393
[41] = system: SF-268
[42] = system: SF-295
[43] = system: SF-539
[44] = system: SK-MEL-28
[45] = system: SK-MEL-2
[46] = system: SK-MEL-5
[47] = system: SK-OV-3
[48] = system: SN12C
[49] = system: SNB-19
[50] = system: SNB-75
[51] = system: SR
[52] = system: SW-620
[53] = system: T47D
[54] = system: TK-10
[55] = system: U-251
[56] = system: UACC-257
[57] = system: UACC-62
[58] = system: UO-31

Measured: GI50

CC(C)(CCC(C)(C)c1ccccc1)c1ccccc1
inactive: [1] 15.7 µM | [2] 17.9 µM | [3] 28.8 µM | [4] 17.8 µM | [5] 20.2 µM | [6] 22.5 µM | [7] 18.4 µM | [8] 18.1 µM | [9] 18.4 µM | [10] 17.7 µM | [11] 14.7 µM | [13] 16.3 µM | [14] 17.4 µM | [15] 19 µM | [16] 14.5 µM | [17] 22.1 µM | [18] 24.9 µM | [19] 21.8 µM | [20] 15.3 µM | [21] 17.5 µM | [22] 18.7 µM | [23] 17.9 µM | [24] 16.7 µM | [25] 21.9 µM | [26] 22.2 µM | [27] 18.5 µM | [28] 16 µM | [29] 20.7 µM | [30] 18.2 µM | [31] 17.2 µM | [32] 15.7 µM | [33] 19.5 µM | [34] 16.3 µM | [35] 16.4 µM | [36] 18.8 µM | [37] 27 µM | [38] 30.8 µM | [39] 15.1 µM | [40] 12.9 µM | [41] 17.3 µM | [42] 17 µM | [43] 21.1 µM | [44] 20 µM | [45] 16.6 µM | [46] 14.4 µM | [47] 27.1 µM | [48] 18.2 µM | [49] 18.3 µM | [50] 18 µM | [51] 21 µM | [52] 17.2 µM | [53] 16.7 µM | [54] 21.6 µM | [55] 16.7 µM | [56] 14.3 µM | [57] 19 µM
20.9 µM: [12]

Brc1ccc(-c2cn3ccncc3n2)cc1
inactive: [1] > 100 µM | [2] > 100 µM | [3] > 100 µM | [4] > 100 µM | [5] > 100 µM | [6] > 100 µM | [7] > 100 µM | [8] > 100 µM | [9] > 100 µM | [10] 63.8 µM | [11] > 100 µM | [14] > 100 µM | [15] > 100 µM | [16] > 100 µM | [17] > 100 µM | [18] > 100 µM | [19] > 100 µM | [20] > 100 µM | [21] > 100 µM | [22] > 100 µM | [23] > 100 µM | [24] > 100 µM | [25] > 100 µM | [26] > 100 µM | [27] 60.3 µM | [28] > 100 µM | [29] > 100 µM | [30] > 100 µM | [31] > 100 µM | [32] > 100 µM | [33] > 100 µM | [34] > 100 µM | [35] > 100 µM | [36] > 100 µM | [37] > 100 µM | [38] > 100 µM | [39] > 100 µM | [40] > 100 µM | [41] > 100 µM | [42] > 100 µM | [43] > 100 µM | [44] > 100 µM | [45] > 100 µM | [46] > 100 µM | [47] > 100 µM | [48] > 100 µM | [49] > 100 µM | [50] > 100 µM | [51] > 100 µM | [53] > 100 µM | [54] > 100 µM | [55] > 100 µM | [56] 14.9 µM | [57] > 100 µM | [58] > 100 µM
> 100 µM: [12]

C=CCC1C(=O)Nc2cccc3ncn(c23)C1=O (stereo not drawn)
inactive: [1] > 100 µM | [2] > 100 µM | [3] > 100 µM | [4] > 100 µM | [5] > 100 µM | [6] > 100 µM | [7] > 100 µM | [8] > 100 µM | [9] > 100 µM | [10] > 100 µM | [11] > 100 µM | [13] > 100 µM | [14] > 100 µM | [15] > 100 µM | [16] > 100 µM | [17] > 100 µM | [18] > 100 µM | [19] > 100 µM | [20] 48.9 µM | [22] > 100 µM | [23] > 100 µM | [24] > 100 µM | [25] > 100 µM | [26] > 100 µM | [27] > 100 µM | [28] > 100 µM | [29] > 100 µM | [30] > 100 µM | [31] > 100 µM | [33] > 100 µM | [34] > 100 µM | [35] > 100 µM | [36] > 100 µM | [37] > 100 µM | [38] > 100 µM | [39] > 100 µM | [40] > 100 µM | [41] > 100 µM | [42] > 100 µM | [43] > 100 µM | [44] > 100 µM | [45] > 100 µM | [46] > 100 µM | [47] > 100 µM | [48] > 100 µM | [49] > 100 µM | [50] > 100 µM | [51] > 100 µM | [52] > 100 µM | [53] > 100 µM | [55] > 100 µM | [56] > 100 µM | [57] > 100 µM | [58] > 100 µM
> 100 µM: [12]
